{"source": "paper PMC9023544", "about": "“Ketone-selenoesters as potential anticancer and multidrug resistance modulation agents in 2D and 3D ovarian and breast cancer in vitro models” (Scientific Reports, 2022)", "key": {"[1]": {"tested_on": "HOC", "test": "Oxidation stress (ROS), Muse Oxidative Stress Kit", "type": "cell-based, human", "conditions": "1 µM (DMSO 5% V/V), 24 h", "method": "Selenoesters (K3, K4, K7) were tested for their ability to generate reactive oxygen species (ROS). HOC was exposed to selenoesters in concentration of 1 µM for 24 h. DMSO (5% V/V) was used as a positive control. The required volume of DMSO (1% V/V) was added to untreated cells. ROS are essential biomolecules in cellular regulation as a part of the defence mechanisms. On the other hand, their participation in cell signalling may affect apoptosis and other death pathways. In the assay, dihydroethidium (DHE) reacts with superoxide anions by forming DNA-binding fluorophore ethidium bromide. Based on fluorescence, the cell population can be distinguished into ROS negative and ROS positive cells containing oxygen radicals.\nTo determine the oxidation stress potential of selected selenoesters, HOC were seeded into 24-well plates at a density 2 × 10^5 cells/mL for 24 h according to the above mentioned procedure. Afterwards, the plates were washed 1 ×with PBS and fresh DMEM medium containing compounds K3, K4, K7 (final concentration—1 µM) was added for 24 h, except for the positive and negative control. […] as the oxidation stress inductor. After incubation, the cells were washed 1× with PBS and released from the surface by using a trypsin–EDTA solution. After trypsin inhibition by medium addition, the cell suspensions were centrifuged (100×g, 5 min, 25 °C), supernatants were removed, and cell pellets resuspended in 1× assay buffer. All reagents were prepared immediately before use. Afterwards, 10 µL of the cell suspension were mixed with 190 µL of working solution (Muse Oxidative stress reagent) and stained for 30 min at 37 °C. Subsequently, the […] were analysed by Guava Muse Cell Analyzer. Oxidation stress detection was performed following the instructions provided by the manufacturer."}, "[2]": {"tested_on": "MCF-7/PAX (paclitaxel-resistant sub-line)", "test": "Cytotoxic activity, 2D, resazurin, 72 h", "type": "cell-based, human", "method": "(§1) The cytotoxic potential of selenoesters was tested on several cancer cell lines—HOC (human parental ovarian adenocarcinoma, HOC, A2780, Sigma-Aldrich), HOC/ADR (sub-line resistant to Adriamycin, A2780/ADR, Sigma-Aldrich), MCF-7 (human breast adenocarcinoma, ATCC®, HTB-22TM), MCF-7/PAX (resistant sub-line established by gradual adaptation of parental cells to increased concentration of paclitaxel; kindly provided by Division of Cell and Molecular Biology, Third Faculty of Medicine, Charles University, Czech Republic) and on one non-cancerous cell line—HEK293 (human embryonic kidney cell line, Leibniz Institute, DSMZ-German Collection of Microorganisms and Cell Cultures GmbH). All mentioned cell lines were authenticated using short tandem repeat (STR) profiling. Cell lines were cultivated in DMEM medium (10% FBS, 1× antibiotic antimycotic solution), except for HEK293 cell line which was cultivated without antibiotics. In case of the resistant cell lines, the medium was supplemented with a required concentration of cytostatics to maintain resistance (HOC/ADR—100 nM Adriamycin; MCF-7/PAX—300 nM paclitaxel). All cells were cultivated in a CO2 incubator (5% CO2, 37 °C, Thermo Fisher Scientific).\n(§2) For the experiment, the cells at passage number 5–20 were seeded at a 1 × 10^5 cells/mL concentration into 96-well plates to 100 µL final volume. The final concentration range of the compounds was 0.63–20 µM. After an incubation of 72 h, the plates were washed 1× with PBS and resazurin solution (0.03 mg/mL in 1× PBS) was added. After 1 h of incubation, the fluorescence signal was recorded (ex./em. 560/590 nm).\n(§3) The selectivity index (SI) was determined as the ratio of IC50 value for the non-cancerous cells to IC50 for the cancer cell line. For resistant cell lines, the collateral sensitivity (CS) was calculated as the ratio of IC50 value in sensitive tumour cells to IC50 in the resistant cancer cell line. In both cases, the selectivity is considered as: (1) strongly selective when SI or CS value is above 6, (2) moderately selective when SI or CS is between 3 and 6, (3) slightly selective when SI or CS is between 1 and 3 and (4) non-selective when SI or CS is less than 1[23]."}, "[3]": {"tested_on": "HOC/ADR (sub-line resistant to Adriamycin, A2780/ADR)", "test": "Cytotoxic activity, 2D, resazurin, 72 h", "type": "cell-based, human", "method": "as §1, §2, §3"}, "[4]": {"tested_on": "HOC/ADR", "test": "Sensitization of MDR cell line to Adriamycin", "type": "cell-based, human", "conditions": "IC50 of Adriamycin / IC50 of Adriamycin with IC10 dose of compound", "method": "To determine the sensitization potential of compounds, HOC/ADR and MCF-7/PAX were used. Based on the cytotoxic potential of the compounds against several cancer and non-cancerous cell lines (Table 1), the concentrations of applied compounds were adjusted. IC10 values was considered as the concentrations, which should not decrease the cell viability under 90%. After the addition of compounds, Adriamycin (concentration range 0.1–20 µM) and paclitaxel (concentration range 0.1–10 µM) were added to HOC/ADR and MCF-7/PAX, respectively. The sensitization potential of the compounds was determined as the ratio of the IC50 of cytostatic agent (Adriamycin/paclitaxel) to the IC50 of cytostatic agent affected by the compound in concentration corresponding to the IC10 value. Fold change greater than 1 indicated synergic effect of cytostatic agent and the tested compound.\nAfter that, the plates were washed 1× with PBS and fresh DMEM medium supplemented with tested compounds at final concentration corresponding their IC10 value was added, except for positive control wells. Subsequently, Adriamycin (concentration range 0.1–20 µM) or paclitaxel (concentration range 0.1–10 µM) was added to the appropriate cell line for 72 h. After incubation, the cells were washed 1× with PBS and the resazurin solution (0.03 mg/mL) was added to evaluate the cell viability as described above. IC50 values of cytostatics were calculated for both the control and compounds; a fold change was counted up. When this fold change is higher than 1 indicates a synergism between the tested cytostatic agent and the compound, while a fold change lower than 1 means an antagonism. Fold change=IC50value of cytostatic treated cells only/IC50value of cytostatic treated cells in addition of the compound"}, "[5]": {"tested_on": "MCF-7 (human breast adenocarcinoma)", "test": "Cytotoxic activity, 2D, resazurin, 72 h", "type": "cell-based", "method": "as §1, §2, §3"}, "[6]": {"tested_on": "HOC (human parental ovarian adenocarcinoma, A2780)", "test": "Cytotoxic activity, 2D, resazurin, 72 h", "type": "cell-based", "method": "as §1, §2, §3"}, "[7]": {"tested_on": "HEK293 (human embryonic kidney cell line)", "test": "Cytotoxic activity, non-cancerous cell line, resazurin, 72 h", "type": "cell-based", "conditions": "Homo sapiens, HEK293; 72 h, mean ± SEM, n=3", "method": "as §1, §2, §3"}, "[8]": {"tested_on": "prostate metastatic cancer line", "design": "method as in PMID 21549092", "conditions": "cited from earlier work"}}, "data": [{"smiles": "C[S+](C)[O-]", "note": "[DMSO (5% V/V), dimethyl sulfoxide, reference compound]", "values": [{"measurement": "ROS(+) cells", "setting": "[1]", "value": "68.7 ± 1.9", "unit": "%"}, {"measurement": "ROS(−) cells", "setting": "[1]", "value": "31.8 ± 2.3", "unit": "%"}]}, {"smiles": "N#CC[Se]C(=O)c1cc(C(F)(F)F)cc(C(F)(F)F)c1", "note": "[N7]", "values": [{"measurement": "IC50", "setting": "[2]; Homo sapiens, MCF7, 2D, 72 h, mean ± SEM, n=3, read-out: MCF-7/PAX IC50", "value": "2.7 ± 0.3", "unit": "µM"}, {"measurement": "SI HEK293/MC7-7/PAX", "setting": "[2]; IC50 HEK293 / IC50 MCF-7/PAX", "value": "2.5 ± 0.4"}, {"measurement": "CS (collateral sensitivity index)", "setting": "[2]; IC50 MCF-7 / IC50 MCF-7/PAX", "value": "0.8 ± 0.1"}, {"measurement": "IC10", "setting": "[3]; Homo sapiens, A2780 ADR, 72 h, HOC/ADR, concentration that should not decrease viability under 90%, read-out: IC10 of compounds", "value": 3.1, "unit": "µM"}, {"measurement": "IC50", "setting": "[3]; Homo sapiens, A2780 ADR, 2D, 72 h, mean ± SEM, n=3, read-out: HOC/ADR IC50", "value": "5.7 ± 0.2", "unit": "µM"}, {"measurement": "SI HEK293/HOC/ADR", "setting": "[3]; IC50 HEK293 / IC50 HOC/ADR", "value": "1.2 ± 0.1"}, {"measurement": "Fold change", "setting": "[4]", "value": "(1.1 ± 0.1)×"}, {"measurement": "IC50", "setting": "[5]; Homo sapiens, MCF7, 2D, 72 h, mean ± SEM, n=3, read-out: MCF-7 IC50", "value": "2.2 ± 0.1", "unit": "µM"}, {"measurement": "SI HEK293/MCF-7", "setting": "[5]; IC50 HEK293 / IC50 MCF-7", "value": "3.0 ± 0.5"}, {"measurement": "selectivity versus HEK293 (in words)", "setting": "[5]; sensitive MCF-7", "value": "moderate selectivity"}, {"measurement": "IC50", "setting": "[6]; Homo sapiens, A2780, 72 h, 2D, 72 h, mean ± SEM, n=3, read-out: HOC IC50", "value": "2.9 ± 0.1", "unit": "µM"}, {"measurement": "SI HEK293/HOC", "setting": "[6]; IC50 HEK293 / IC50 HOC", "value": "2.3 ± 0.3"}, {"measurement": "IC50", "setting": "[7]", "value": "6.6 ± 0.6", "unit": "µM"}]}, {"smiles": "CC(=O)O[C@@]12CO[C@@H]1C[C@H](O)[C@@]1(C)C(=O)[C@H](O)C3=C(C)[C@@H](OC(=O)[C@H](O)[C@@H](NC(=O)OC(C)(C)C)c4ccccc4)C[C@@](O)([C@@H](OC(=O)c4ccccc4)[C@H]21)C3(C)C", "note": "[docetaxel]", "values": [{"measurement": "growth inhibition", "setting": "[8]", "value": 22, "unit": "%"}]}, {"smiles": "O=[Se]([O-])[O-].[Na+].[Na+]", "note": "[sodium selenite]", "values": [{"measurement": "growth inhibition", "setting": "[8]", "value": 24, "unit": "%"}]}]}
